Test system: not given
Assay: not given
Details: not given
Work on Cc1nc2c3c(nn2c(C)c1Cl)CN(C(=O)c1ccccc1CN1CCCNCC1)C3 [Example 118, (6-chloro-5,7-dimethyl-1H,3H-2,4,7a,8-tetraaza-cyclopenta[a]inden-2-yl)-(2-[1,4]diazepan-1-ylmethyl-phenyl)-methanone] yielded a melting point of 185 to 192 °C. With Cc1nc2c3c(nn2c(C)c1Cl)CN(C(=O)c1ccccc1CN1CCCN(C)CC1)C3 [Example 95, (6-Chloro-5,7-dimethyl-1H,3H-2,4,7a,8-tetraaza-cyclopenta[a]inden-2-yl)-[2-(4-methyl-[1,4]diazepan-1-ylmethyl)-phenyl]-methanone] the melting point was 138 to 141 °C. Cc1nc2c3c(nn2c(C)c1C)CN(C(=O)c1ccccc1OCCN(C)C)C3 [Example 22, [2-(2-dimethylamino-ethoxy)-phenyl]-(5,6,7-trimethyl-1H,3H-2,4,7a,8-tetraaza-cyclopenta[a]inden-2-yl)-methanone] gave a melting point of 148 to 150 °C. In the case of O=C(c1ccc(F)cc1OC(F)(F)C(F)F)N1Cc2nn3cc(Cl)cnc3c2C1 [Example 138, (6-chloro-1H,3H-2,4,7a,8-tetraaza-cyclopenta[a]inden-2-yl)-[4-fluoro-2-(1,1,2,2-tetrafluoro-ethoxy)-phenyl]-methanone], the melting point is reported as 208 to 210 °C. For Cc1nc2c3c(nn2c(C)c1Cl)CN(C(=O)c1ccccc1CN1CCNCC1=O)C3 [Example 117, 1-[2-(6-chloro-5,7-dimethyl-1H,3H-2,4,7a,8-tetraaza-cyclopenta[a]indene-2-carbonyl)-benzyl]-piperazin-2-one], the melting point was 176 to 183 °C. In the case of CCOc1c(F)cc(F)cc1C(=O)N1Cc2nn3c(C)c(Cl)c(C)nc3c2C1 [Example 28, (6-chloro-5,7-dimethyl-1H,3H-2,4,7a,8-tetraaza-cyclopenta[a]inden-2-yl)-(2-ethoxy-3,5-difluoro-phenyl)-methanone], the melting point is reported as 153 to 155 °C. Cc1nc2c3c(nn2c(C)c1Cl)CN(C(=O)c1ccccc1CN1CCC(O)C1)C3 (stereo not shown) [Example 72, (6-chloro-5,7-dimethyl-1H,3H-2,4,7a,8-tetraaza-cyclopenta[a]inden-2-yl)-[2-(3-hydroxy-pyrrolidin-1-ylmethyl)-phenyl]-methanone] showed a melting point of 210 to 217 °C. CSCCOc1ccccc1C(=O)N1Cc2nn3c(C)c(Cl)c(C)nc3c2C1 [Example 15, (6-chloro-5,7-dimethyl-1H,3H-2,4,7a,8-tetraaza-cyclopenta[a]inden-2-yl)-[2-(2-methylsulfanyl-ethoxy)-phenyl]-methanone] showed a melting point of 183 to 185 °C. Cc1nc2c3c(nn2c(C)c1Cl)CN(C(=O)c1ccccc1CN1CCN2CCCC2C1)C3 (stereo not shown) [Example 97, (6-chloro-5,7-dimethyl-1H,3H-2,4,7a,8-tetraaza-cyclopenta[a]inden-2-yl)-[2-(hexahydro-pyrrolo[1,2-a]pyrazin-2-ylmethyl)-phenyl]-methanone] showed a melting point of 180 to 182 °C. CCCCOc1ccccc1C(=O)N1Cc2nn3c(C)c(Cl)c(C)nc3c2C1 [Example 11, (2-butoxy-phenyl)-(6-chloro-5,7-dimethyl-1H,3H-2,4,7a,8-tetraaza-cyclopenta[a]inden-2-yl)-methanone] gave a melting point of 167 to 169 °C. Molecule CCOc1ccccc1C(=O)N1Cc2nn3c(C)c(Cl)c(C)nc3c2C1 [Example 10] has a melting point of 164 to 167 °C. Work on Cc1nc2c3c(nn2c(C)c1Cl)CN(C(=O)c1ccccc1CN1CCCC(N)C1)C3 (stereo not shown) [Example 125, [2-(3-amino-piperidin-1-ylmethyl)-phenyl]-(6-chloro-5,7-dimethyl-1H,3H-2,4,7a,8-tetraaza-cyclopenta[a]inden-2-yl)-methanone] yielded a melting point of 165 to 170 °C. Work on Cc1nc2c3c(nn2c(C)c1Cl)CN(C(=O)c1ccccc1CN1CCNC(C)C1)C3 (stereo not shown) [Example 116, (6-chloro-5,7-dimethyl-1H,3H-2,4,7a,8-tetraaza-cyclopenta[a]inden-2-yl)-[2-(3-methyl-piperazin-1-ylmethyl)-phenyl]-methanone] yielded a melting point of 195 to 200 °C. Cc1nc2c3c(nn2c(C)c1Cl)CN(C(=O)c1ccccc1CN1C[C@H]2CN(C)C[C@H]2C1)C3 [Example 94, (6-chloro-5,7-dimethyl-1H,3H-2,4,7a,8-tetraaza-cyclopenta[a]inden-2-yl)-[2-((3aR,6aS)-5-methyl-hexahydro-pyrrolo[3,4-c]pyrrol-2-ylmethyl)-phenyl]-methanone] showed a melting point of 174 to 177 °C. Cc1nc2c3c(nn2c(C)c1Cl)CN(C(=O)c1ccccc1CN1CC(N(C)C)C1)C3 [Example 126, (6-chloro-5,7-dimethyl-1H,3H-2,4,7a,8-tetraaza-cyclopenta[a]inden-2-yl)-[2-(3-dimethylamino-azetidin-1-ylmethyl)-phenyl]-methanone] gave a melting point of 159 to 162 °C. Cc1nc2c3c(nn2c(C)c1Cl)CN(C(=O)c1ccccc1CN1CCC(O)(C(F)(F)F)CC1)C3 [Example 90, (6-chloro-5,7-dimethyl-1H,3H-2,4,7a,8-tetraaza-cyclopenta[a]inden-2-yl)-[2-(4-hydroxy-4-trifluoromethyl-piperidin-1-ylmethyl)-phenyl]-methanone] showed a melting point of 223 to 227 °C. Work on Cc1nc2c3c(nn2c(C)c1Cl)CN(C(=O)c1ccccc1CN(CCN(C)C)CC(F)(F)F)C3 [Example 154, (6-chloro-5,7-dimethyl-1H,3H-2,4,7a,8-tetraaza-cyclopenta[a]inden-2-yl)-(2-{[(2-dimethylamino-ethyl)-(2,2,2-trifluoro-ethyl)-amino]-methyl}-phenyl)-methanone] yielded a melting point of 168 to 174 °C. With O=C(c1ccccc1OC(F)(F)C(F)F)N1Cc2nn3cc(Cl)cnc3c2C1 [Example 106, (6-chloro-1H,3H-2,4,7a,8-tetraaza-cyclopenta[a]inden-2-yl)-[2-(1,1,2,2-tetrafluoro-ethoxy)-phenyl]-methanone] the melting point was 194 to 196 °C.

Target: T1, muscarinic M1 receptor (Homo sapiens, UniProt P11229)
T1 construct: expressed in transfected cells; host or cells: CHO (M1-CHO cells)
T1 sequence (P11229 1-460): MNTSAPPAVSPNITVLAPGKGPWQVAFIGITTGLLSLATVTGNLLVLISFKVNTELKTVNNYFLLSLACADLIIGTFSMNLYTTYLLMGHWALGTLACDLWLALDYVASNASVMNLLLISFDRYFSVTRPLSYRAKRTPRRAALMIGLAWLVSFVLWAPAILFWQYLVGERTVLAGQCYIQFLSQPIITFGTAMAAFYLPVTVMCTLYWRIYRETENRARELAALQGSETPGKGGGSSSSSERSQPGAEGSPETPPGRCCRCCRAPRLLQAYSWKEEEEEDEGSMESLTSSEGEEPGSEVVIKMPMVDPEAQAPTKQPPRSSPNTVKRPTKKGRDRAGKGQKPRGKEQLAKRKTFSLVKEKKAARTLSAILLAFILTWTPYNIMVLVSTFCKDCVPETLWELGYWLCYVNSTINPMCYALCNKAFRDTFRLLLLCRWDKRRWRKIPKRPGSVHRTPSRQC
Assay: M1 PAM Assay (IP-One HTRF, IP1 in M1-CHO cells with EC20 of acetylcholine)
Assay type: cell-based
Details: 1 hour at room temperature, IP1 readout
Method: M1-CHO cells are plated in culture medium (HAM's F12, P/S, 10% FCS) on the day before the experiment with 10 000 cells/well in a 384 well plate (3750 Corning White 384 w plate with lid). On the day of experiment, cells are washed with PBS and IPone buffer is added (glucose 5.5 mM, NaCl 146 mM, MgCl2 0.5 mM, HEPES 10 mM, LiCl 50 mM, CaCl2 1 mM, KCl 4.2 mM). Then diluted compounds (1% DMSO final concentration) are added together with EC20 of acetylcholine and incubated with the cells for 1 hour at room temperature. The intracellular concentration of IP1 is then measured using the IP-One HTRF assay from Cisbio.
Work on Cc1nc2c3c(nn2c(C)c1C)CN(C(=O)c1ccccc1OCCN(C)C)C3 [Example 22, [2-(2-dimethylamino-ethoxy)-phenyl]-(5,6,7-trimethyl-1H,3H-2,4,7a,8-tetraaza-cyclopenta[a]inden-2-yl)-methanone] yielded an EC50 of 200 to 1000 nM. CCOc1c(F)cc(F)cc1C(=O)N1Cc2nn3c(C)c(Cl)c(C)nc3c2C1 [Example 28, (6-chloro-5,7-dimethyl-1H,3H-2,4,7a,8-tetraaza-cyclopenta[a]inden-2-yl)-(2-ethoxy-3,5-difluoro-phenyl)-methanone] gave an EC50 of 1000 to 2000 nM. CSCCOc1ccccc1C(=O)N1Cc2nn3c(C)c(Cl)c(C)nc3c2C1 [Example 15, (6-chloro-5,7-dimethyl-1H,3H-2,4,7a,8-tetraaza-cyclopenta[a]inden-2-yl)-[2-(2-methylsulfanyl-ethoxy)-phenyl]-methanone] gave an EC50 of 200 to 1000 nM. In the case of CCCCOc1ccccc1C(=O)N1Cc2nn3c(C)c(Cl)c(C)nc3c2C1 [Example 11, (2-butoxy-phenyl)-(6-chloro-5,7-dimethyl-1H,3H-2,4,7a,8-tetraaza-cyclopenta[a]inden-2-yl)-methanone], the EC50 is reported as 200 to 1000 nM. For CCOc1ccccc1C(=O)N1Cc2nn3c(C)c(Cl)c(C)nc3c2C1 [Example 10], the EC50 was 200 to 1000 nM. In the case of Cc1cnc2c3c(nn2c1)CN(C(=O)c1ccccc1OCCN(C)C)C3 [Example 47, [2-(2-dimethylamino-ethoxy)-phenyl]-(6-methyl-1H,3H-2,4,7a,8-tetraaza-cyclopenta[a]inden-2-yl)-methanone], the EC50 is reported as 1000 to 2000 nM. Cc1nc2c3c(nn2c(C)c1C)CN(C(=O)c1ccccc1OCCN1CCCCC1)C3 [Example 20, [2-(2-piperidin-1-yl-ethoxy)-phenyl]-(5,6,7-trimethyl-1H,3H-2,4,7a,8-tetraaza-cyclopenta[a]inden-2-yl)-methanone] showed an EC50 of 200 to 1000 nM. In the case of Cc1nc2c3c(nn2c(C)c1Cl)CN(C(=O)c1ccccc1OC(F)(F)C(F)F)C3 [Example 2, (6-chloro-5,7-dimethyl-1H,3H-2,4,7a,8-tetraaza-cyclopenta[a]inden-2-yl)-[2-(1,1,2,2-tetrafluoro-ethoxy)-phenyl]-methanone], the EC50 is reported as < 200 nM. In the case of Cc1nc2c3c(nn2c(C)c1C)CN(C(=O)c1ccccc1OCCn1cccn1)C3 [Example 24, [2-(2-pyrazol-1-yl-ethoxy)-phenyl]-(5,6,7-trimethyl-1H,3H-2,4,7a,8-tetraaza-cyclopenta[a]inden-2-yl)-methanone], the EC50 is reported as 200 to 1000 nM. With CCOc1cc(F)ccc1C(=O)N1Cc2nn3c(C)c(Cl)c(C)nc3c2C1 [Example 5, (6-chloro-5,7-dimethyl-1H,3H-2,4,7a,8-tetraaza-cyclopenta[a]inden-2-yl)-(2-ethoxy-4-fluoro-phenyl)-methanone] the EC50 was 200 to 1000 nM. Cc1nc2c3c(nn2c(C)c1C)CN(C(=O)c1ccccc1N1CCCN(C)CC1)C3 [Example 19, [2-(4-methyl-[1,4]diazepan-1-yl)-phenyl]-(5,6,7-trimethyl-1H,3H-2,4,7a,8-tetraaza-cyclopenta[a]inden-2-yl)-methanone] gave an EC50 of 200 to 1000 nM. Work on COC(=O)c1ccccc1C(=O)N1Cc2nn3c(C)c(C)c(C)nc3c2C1 [Example 44, 2-(5,6,7-trimethyl-1H,3H-2,4,7a,8-tetraaza-cyclopenta[a]indene-2-carbonyl)-benzoic acid methyl ester] yielded an EC50 of 1000 to 2000 nM. Cc1nc2c3c(nn2c(C)c1Cl)CN(C(=O)c1ccccc1N1CCCN(C)CC1)C3 [Example 6, (6-chloro-5,7-dimethyl-1H,3H-2,4,7a,8-tetraaza-cyclopenta[a]inden-2-yl)-[2-(4-methyl-[1,4]diazepan-1-yl)-phenyl]-methanone] showed an EC50 of 200 to 1000 nM. Work on CCOc1ccccc1C(=O)N1Cc2nn3cc(Br)cnc3c2C1 [Example 48, (6-bromo-1H,3H-2,4,7a,8-tetraaza-cyclopenta[a]inden-2-yl)-(2-ethoxy-phenyl)-methanone] yielded an EC50 of 1000 to 2000 nM. With Cc1nc2c3c(nn2c(C)c1Cl)CN(C(=O)c1ccccc1N1CCCC1)C3 [Example 7, (6-chloro-5,7-dimethyl-1H,3H-2,4,7a,8-tetraaza-cyclopenta[a]inden-2-yl)-(2-pyrrolidin-1-yl-phenyl)-methanone] the EC50 was 200 to 1000 nM. Molecule Cc1nc2c3c(nn2c(C)c1C)CN(C(=O)c1ccccc1OC(F)(F)F)C3 [Example 17, (2-trifluoromethoxy-phenyl)-(5,6,7-trimethyl-1H,3H-2,4,7a,8-tetraaza-cyclopenta[a]inden-2-yl)-methanone] has an EC50 of 200 to 1000 nM.

From patent publication US9403835B2, “Tetraaza-cyclopenta[a]indenyl and their use as positive allosteric modulators” (Merck Patent GmbH, priority 2011, dated 2016)
